# From US20220288004A1, “TREATMENT AND PREVENTION OF AGING RELATED-DISEASE AND/OR AGING BY THE INHIBITION OF SPHINGOLIPIDS” (ECOLE POLYTECHNIQUE FEDERALE DE LAUSANNE (EPFL), priority 2019, published 2022)
# “Also recorded” adds a separate entry of the source.
# Columns and labels:
# Format in all cases: in vivo, mouse
# [1] = tested on: skeletal muscle of aged mice; test: Proteostasis (A11 staining) in skeletal muscle of aged mice
# Description: FIG. 17. […] Values are expressed as mean±s.e.m. *P≤0.05. Differences between two groups were assessed using Student's two-tailed t-tests (error bars: 95% confidence intervals).
# mdx mice = test: Transplantation of MuSCs from myriocin treated donors into cardiotoxin-injured mdx recipients
# Source text: Decline in tissue regenerative potential is a major hallmark of mammalian aging, including skeletal muscle. It was next asked the question whether myriocin treatment induces functional improvement of MuSCs, boosting their regenerative capacity. MuSCs from aged mice treated or untreated with myriocin for 5 months were isolated, and transplanted into tibialis anterior (TA) muscles of recipient mice. The recipient mice were either aged (20-month-old) C57Bl/6JRj or aged (1-year-old) mdx mice, a mouse model of Duchenne muscular dystrophy lacking dystrophin protein (FIG. 4a). Before MuSC transplantation, injury was induced by cardiotoxin injection to TA of all recipient mice. […] At both 7 and 14 days after transplantation the inflammatory area was also smaller (FIG. 12a-b) in mdx recipients of MuSCs isolated from myriocin treated mice. […] Thus, transplantation of MuSCs derived from myriocin treated donors induce major morphological improvements following cardiotoxin-induced muscle injury.
# Cardiotoxin-induced muscle damage and MuSC transplantation. […]
# Histology. […] Microscopy images of fluorescence from muscle fibers were analyzed using the ImageJ software. Centralized nuclei percent, minimal Feret diameter and cross-sectional area in TA muscles were determined using the ImageJ software quantification of laminin, dystrophin, and DAPI-stained muscle images from VS120-S6-W slides scanner (Olympus). […] The mean cross-sectional area of muscle fibers was calculated as the average cross-sectional area of 2,000 fibers per from sample. 7-8 mouse samples per condition were used for histological quantification of donor mice. The eMyHC quantification is expressed as proportion of eMyHC positive signal over total TA cross sectional area. Following MuSC injection in CTX injected recipient mice, inflammation representing the regenerative stage of muscle was quantified by ImageJ software as proportion of inflammatory area over total area of the TA muscle cross section. The PAX7-positive cells were quantified as the average number of cells per field of more than 30 randomly chosen fields from a mouse TA. […]
# aged C57Bl/6JRj mice [2] = test: Body composition, muscle mass and TA muscle histology in aged mice
# Description: To examine whether a causal relationship could underlie the correlation between SphPC1 and muscle mass and function, it was tested whether inhibition of sphingolipid de novo biosynthesis pathway could protect against age-related muscle dysfunction. Aged (18-month-old) C57Bl/6JRj mice were treated for 5 months on chow diet with myriocin, a specific inhibitor of SPT, the first and rate-limiting enzyme of the sphingolipid de novo synthesis pathway, and whose expression in skeletal muscle was negatively correlated with muscular fitness in BXDs.
# Animals. Young (2-month-old) and aged (18-month-old) C57Bl/6JRj mice were purchased from Janvier Labs. EchoMRI measuring the fat and lean body mass, were measured before and after the treatment. The dose of myriocin was 0.4 mg/kg/3 times a week. Myriocin (Enzo Life Sciences, Farmingdale, N.Y.) was first dissolved in DMSO which was then mixed with PBS so that each mouse received 1.5 μL DMSO per injection. Animals were fed on a standard chow diet. All animals were housed in micro-isolator cages in a room illuminated from 7:00 AM to 7:00 PM with ad libitum access to diet and water. All the animal experiments are authorized by animal license 2890.1 and 3341 in Canton of Vaud, Switzerland.
# Histology. TA muscles were harvested from anesthetized mice, and immediately embedded in Thermo Scientific™ Shandon™ Cryomatrix™ and frozen in isopentane, cooled in liquid nitrogen, for 1 min before being transferred to dry ice and stored at −80° C. 8 μm cryosections were incubated in 4% PFA for 15 min, washed three times for 10 min with PBS, incubated for antigen retrieval in pH 6.0 citrate buffer for 10 min at 95° C. […] Microscopy images of fluorescence from muscle fibers were analyzed using the ImageJ software. Centralized nuclei percent, minimal Feret diameter and cross-sectional area in TA muscles were determined using the ImageJ software quantification of laminin, dystrophin, and DAPI-stained muscle images from VS120-S6-W slides scanner (Olympus). […] The mean cross-sectional area of muscle fibers was calculated as the average cross-sectional area of 2,000 fibers per from sample. 7-8 mouse samples per condition were used for histological quantification of donor mice. The eMyHC quantification is expressed as proportion of eMyHC positive signal over total TA cross sectional area. Following MuSC injection in CTX injected recipient mice, inflammation representing the regenerative stage of muscle was quantified by ImageJ software as proportion of inflammatory area over total area of the TA muscle cross section. The PAX7-positive cells were quantified as the average number of cells per field of more than 30 randomly chosen fields from a mouse TA. For each quantification, 3 or more mice were used.
# aged C57Bl/6JRj mice [3] = test: Novel object recognition in aged mice
# Description: Novel Object Recognition. The novel object recognition task is used to assess recognition memory of mice. It is based on the natural tendency of rodents to explore a novel object by comparison to a familiar one. A habituation phase is realized to familiarize animals to the arena context. 24 hours later, during the acquisition phase (learning phase), two identical objects are placed in the arena and presented to the mouse. During the retention phase (3 hours following the acquisition phase), one of the two familiar objects is replaced by a novel one. Measures of duration and number of exploration for each object are realized, during both acquisition and retention phases, and a Recognition Index is calculated.
smiles,measurement,setting,value
"CCCCCCC(=O)CCCCCCC=CCC(O)C(O)C(N)(CO)C(=O)O (centres unmarked) [myriocin, 2-Amino-3,4-dihydroxy-2-(hydroxymethyl)-14-oxoicos-6-enoic acid]",proteostasis in skeletal muscle,[1]; aged mice treated with myriocin,improves proteostasis; also recorded: promoted proteostasis
same,amyloid beta aggregates (A11 staining),[1]; skeletal muscle of aged mice treated with myriocin,cleared amyloid beta aggregates
same,inflammatory area of TA,mdx mice; 7 and 14 days after transplantation,smaller
same,count of PAX7+ cells in TA,mdx mice; 7 days after transplantation,elevated count
same,myogenesis of dystrophin-positive fibers,mdx mice; 7 days after transplantation,stimulated myogenesis
same,lean body mass,"aged C57Bl/6JRj mice [2]; myriocin 0.4 mg/kg i.p. 3 times per week, 5 months, EchoMRI before and after treatment",delayed age-dependent decline; also recorded: higher
same,cross-sectional area of muscle fibers (TA),aged C57Bl/6JRj mice [2]; myriocin 5 months vs DMSO,larger
same,number of centralized nuclei in TA muscle,aged C57Bl/6JRj mice [2]; myriocin 5 months vs DMSO,reduced number
same,gastrocnemius and TA mass,aged C57Bl/6JRj mice [2]; myriocin 5 months vs DMSO treated controls,greater; also recorded: higher
same,recognition index,aged C57Bl/6JRj mice [3]; myriocin 5 months vs DMSO,higher
same,time exploring novel object relative to familiar object,aged C57Bl/6JRj mice [3]; myriocin 5 months vs DMSO treated counterparts,more
